Values joined by “and” are separate entries in the source; they are usually repeats but may differ in a detail not shown here. Equal entries are not always repeated. Where two headings read alike, the source gives them in different places.
Tests used:
[1] = system: clinical drug-induced liver injury; conditions: clinical DILI severity category 1 to 5; cited from earlier work
[2] = system: human Liver-Chip (hepatocytes and non-parenchymal cells); conditions: for Morphology Score: injury score 0-4, averaged, one line per replicate chip
Method: At least four to six brightfield images were acquired per chip for morphology analysis. […] Brightfield images were acquired across three fields of view on days 1, 3, and 7 for each cycle. Cytotoxicity classification was performed while acquiring images for both NPCs and hepatocytes. Images were then scored zero to four by blinded individuals (n = 2) based on severity of agglomeration of cell debris for both channels. The scoring matrix and representative images have been included in the supplement (Supplementary Fig. 1).
Hepatocyte layer on Chips
Non-parenchymal cell layer on Chips
Supplementary Figure 1. (a) Representative brightfield images to depict the cellular morphology score in the top channel of the Liver-Chip which contains hepatocytes. A score of 0 represents no hepatotoxicity detected, which is defined by 95-100% healthy hepatocyte morphology, hexagonal shape containing binucleated cells, clear cell cytoplasm, distinctive cell junctions and less than 5% dead cells. A score of 1 […]
cells. A score of 2 represents mild hepatotoxicity with > 70% monolayer of hepatocytes visible, evidence that cells have begun to lose their distinct cell junctions, many cells contain a granulated cytoplasm but < 30% are dead cells. A score of 3 represents moderate hepatotoxicity with severe granulation of cytoplasm and most of the cells have lost their junctions. Approximately 50% of the cells are considered dead. A score of 4 represents severe hepatotoxicity with agglomeration of cell debris and > 50% of the cells are considered dead. The pores on the membrane become visible as there is no longer a cellular monolayer. (b) Representative brightfield images to depict the cellular morphology score in the bottom channel of the Liver-Chip which contains non-parenchymal cells. A score of 0 represents no cytotoxicity detected, with an intact monolayer and <1% of the cells are dead. A score of 1 represents at least 90% of the monolayer is present and there are <10% dead cells. A score of 2 represents mild cytotoxicity with > 80% of the monolayer present and < 20% are dead cells. A score of 3 represents moderate cytotoxicity with > 50% of the monolayer present and < 50% are dead cells. A score of 4 represents severe cytotoxicity with > 50% of the cells are considered dead. (bar, 50 μm). […]

[3] = system: human Liver-Chip (primary human hepatocytes); assay: Liver-Chip alanine transaminase (ALT) release in top channel effluent (ELISA); type: cell-based
Text: Cycles 1 to 4 tested 6–8 concentrations in duplicate for each of 10–13 drugs. To determine which sampling strategy was optimal for cycles 1 to 4 (16 doses × 1 replicate, 8 × 2, 5 × 3, or 4 × 4), we generated three different “dose-response” synthetic datasets, each distorted by different noise levels (low, medium, or high). For each of these datasets, we performed curve-fitting analyses and calculated the Root Mean Square Error between the “true” and estimated IC50 parameter. […] Some drugs were also repeated across cycles (on different donors or at different concentrations) to ensure experimental robustness. However, to replicate a more typical study design likely to be carried out by scientists in the pharmaceutical industry, we created cycle 5 with 6 drugs, where each was tested in 4 concentrations in triplicate. For each cycle, chips were dosed with drug over 8 days (referred to as Day 0 through Day 7).
The drug dosing concentrations were determined from the unbound human Cmax of each drug. First, the expected fraction of drug unbound in media with 2% FBS was extrapolated from plasma binding data for each drug. Dosing concentrations were then back calculated such that the unbound fraction in media would reflect relevant multiples of unbound human Cmax (Supplementary Data 1).
On the first dosing day (Day 0), all chips were imaged using the ECHO microscope. Five hundred microliters of effluent was collected from all four reservoirs of the pod and placed in a labeled 96-well plate. After collection, all the remaining media was carefully aspirated before dosing with 3.8 mL of corresponding dosing solution. Dosing occurred on study days 0, 2, and 4 for chips flowing at 30 µL/h, and on days 0, 1, 2, 3, 4, 5, and 6 for chips flowing at 150 µL/h. Effluent collection occurred on days 1, 3, and 7.
Top channel outlet effluents were analyzed to quantify albumin and alanine transaminase (ALT) levels on days 1, 3, and 7 using sandwich ELISA kits (Abcam, Albumin ab179887, ALT ab234578) according to vendor-provided protocols. Frozen (−80 °C) effluent samples were thawed overnight at 4 °C prior to assay. The Hamilton Vantage liquid handling platform was used to manage effluent dilutions (1:500 for albumin, neat for ALT), preparation of standard curves, and addition of antibody cocktail. Absorbance at 450 nm was measured using the SynergyNeo Microplate Reader (BioTek).

[4] = cited from earlier work
[5] = lowest concentration causing an increase in cellular morphology score, donor 1
[6] = lowest concentration causing an increase in cellular morphology score, donor 2
[7] = lowest concentration causing an increase in cellular morphology score, donor 3
[8] = lowest concentration causing an increase in ALT protein, donor 1
[9] = lowest concentration causing an increase in ALT protein, donor 2
[10] = lowest concentration causing an increase in ALT protein
[11] = expanded drug list, lowest concentration causing an increase in ALT release, donor 1
[12] = expanded drug list, lowest concentration causing an increase in ALT release, donor 2

SMILES	Garside DILI rank [1]	Morphology Donor 1 [2, 5]	ALT Donor 1 [3, 8]	ALT Donor 2 [3, 9]	ALT Donor 3 [3, 10]	Morphology Donor 1 ([2]; human)	ALT Donor 1 [3, 11]	Morphology Donor 2 ([2]; human)	also measured
COC(c1ccccc1)(c1ccccc1)[C@H](Oc1nc(C)cc(C)n1)C(=O)O [Ambrisentan]	5	>300 multiples of the unbound human Cmax	>300 multiples of the unbound human Cmax	>1000 multiples of the unbound human Cmax	>300 multiples of the unbound human Cmax				Morphology Donor 2 [2, 6]: >1000 multiples of the unbound human Cmax; Morphology Donor 3 [2, 7]: >300 multiples of the unbound human Cmax
C=C[C@@H]1C[C@]1(NC(=O)[C@@H]1C[C@@H](Oc2ncc(OC)c3ccc(Cl)cc23)CN1C(=O)[C@@H](NC(=O)OC(C)(C)C)C(C)(C)C)C(=O)NS(=O)(=O)C1CC1 [Asunaprevir]	2					1000 unbound human Cmax multiplier	> 1000 unbound human Cmax multiplier		Expected Fraction Unbound in Plasma ([4]; plasma, ref Lau, S.W.J. (65)): 0.012; Morphological injury score change in words [2]: concentration and time-dependent changes; ALT change in words ([3]; Liver-Chip effluent): no elevation of ALT
CC(C(=O)O)c1ccc2oc(-c3ccc(Cl)cc3)nc2c1 (stereo not drawn) [Benoxaprofen]	1					< 0.1 unbound human Cmax multiplier	> 100 unbound human Cmax multiplier	100 unbound human Cmax multiplier	Expected Fraction Unbound in Plasma ([4]; plasma, ref Scott, L. J. (69)): 0.01; ALT Donor 2 [3, 12]: 100 unbound human Cmax multiplier
CCN(CC)C(=O)/C(C#N)=C/c1cc(O)c(O)c([N+](=O)[O-])c1 [Entacapone]	4	>300 multiples of the unbound human Cmax	>300 multiples of the unbound human Cmax						
O=c1[nH]c(=O)n([C@@H]2O[C@H](CO)[C@@H](O)[C@@H]2F)cc1I [FIRU]	5	>300 multiples of the unbound human Cmax							Expected Fraction Unbound in Plasma ([4]; plasma, ref Scott, L. J. (69)): *0.36; Morphology Donor 2 [2, 6]: >300 multiples of the unbound human Cmax; ALT Donor 1 [3]: >300 multiples of the unbound human Cmax; ALT Donor 2 [3]: >300 multiples of the unbound human Cmax
O=c1[nH]c(=O)n([C@@H]2O[C@H](CO)[C@@H](O)[C@@H]2F)cc1I [Fialuridine]	1		>300 multiples of the unbound human Cmax	>300 multiples of the unbound human Cmax		>300 multiples of the unbound human Cmax		>300 multiples of the unbound human Cmax	
CC(CCc1ccccc1)NCC(O)c1ccc(O)c(C(N)=O)c1 (stereo not drawn) [Labetalol]	1					> 100 unbound human Cmax multiplier	> 100 unbound human Cmax multiplier	100 unbound human Cmax multiplier	Expected Fraction Unbound in Plasma ([4]; plasma, ref Lau, S.W.J. (65)): 0.5; ALT Donor 2 [3, 12]: 100 unbound human Cmax multiplier
C[C@H]1COc2c(N3CCN(C)CC3)c(F)cc3c(=O)c(C(=O)O)cn1c23 [Levofloxacin]			>15 multiples of the unbound human Cmax	>45 multiples of the unbound human Cmax	>45 multiples of the unbound human Cmax	>15 multiples of the unbound human Cmax		>45 multiples of the unbound human Cmax	Morphology Donor 3 ([2]; human): >45 multiples of the unbound human Cmax; ALT_levels ([3]; Concentration_Day3 = 45, one line per replicate chip): 0
O=C(NC1CCN(CCCCC2(C(=O)NCC(F)(F)F)c3ccccc3-c3ccccc32)CC1)c1ccccc1-c1ccc(C(F)(F)F)cc1 [Lomitapide]	3						> 1000 unbound human Cmax multiplier		Expected Fraction Unbound in Plasma ([4]; plasma, ref Lau, S.W.J. (65)): 0.002; Morphology Donor 1 ([2]; expanded drug list, lowest concentration causing an increase in morphology score, donor 1): < 0.1 unbound human Cmax multiplier
CCc1nn(CCCN2CCN(c3cccc(Cl)c3)CC2)c(=O)n1CCOc1ccccc1 [Nefazodone]	1		300 multiples of the unbound human Cmax			300 multiples of the unbound human Cmax			
Cc1cc2c(s1)Nc1ccccc1N=C2N1CCN(C)CC1 [Olanzapine]	5	>300 multiples of the unbound human Cmax	>300 multiples of the unbound human Cmax	>300 multiples of the unbound human Cmax	>300 multiples of the unbound human Cmax				Expected Fraction Unbound in Plasma ([4]; plasma, reference data from the literature, no reference): 0.07; Morphology Score ([2]; Concentration_Day3 = 1): 2 and 1; Morphology Score ([2]; Concentration_Day3 = 3): 1.333 and 1; Morphology Score ([2]; Concentration_Day3 = 10): 2 and 1; Morphology Score ([2]; Concentration_Day3 = 30): 2; Morphology Score ([2]; Concentration_Day3 = 100): 1.667 and 1.333; Morphology Score ([2]; Concentration_Day3 = 300): 1.333 and 2; Morphology Donor 2 [2, 6]: >300 multiples of the unbound human Cmax; Morphology Donor 3 [2, 7]: >300 multiples of the unbound human Cmax
CCc1ccc(CCOc2ccc(CC3SC(=O)NC3=O)cc2)nc1 (stereo not drawn) [Pioglitazone]	3		>300 multiples of the unbound human Cmax	>300 multiples of the unbound human Cmax		>300 multiples of the unbound human Cmax		>300 multiples of the unbound human Cmax	
Cc1cc2c(cc1CC(=O)c1sccc1S(=O)(=O)Nc1onc(C)c1Cl)OCO2 [Sitaxsentan]	1	100 multiples of the unbound human Cmax	300 multiples of the unbound human Cmax	300 multiples of the unbound human Cmax	100 multiples of the unbound human Cmax				Morphology Donor 2 [2, 6]: 100 multiples of the unbound human Cmax; Morphology Donor 3 [2, 7]: 100 multiples of the unbound human Cmax
N[C@@H]1[C@H]2CN(c3nc4c(cc3F)c(=O)c(C(=O)O)cn4-c3ccc(F)cc3F)C[C@@H]12 [Trovafloxacin]			100 multiples of the unbound human Cmax	100 multiples of the unbound human Cmax	30 multiples of the unbound human Cmax	100 multiples of the unbound human Cmax		100 multiples of the unbound human Cmax	Morphology Donor 3 ([2]; human): 30 multiples of the unbound human Cmax
CCOC(=O)CN[C@@H](C(=O)N1CC[C@H]1C(=O)NCc1ccc(/C(N)=N\O)cc1)C1CCCCC1 [Ximelagatran]						100 unbound human Cmax multiplier	30 unbound human Cmax multiplier	300 unbound human Cmax multiplier	Expected Fraction Unbound in Plasma ([4]; human plasma, no reference printed (-)): 1; ALT Donor 2 [3, 12]: > 300 unbound human Cmax multiplier
